Data on 9 compounds can be found in patent US8507439B2, “Neuroprotective and neurorestorative method and compositions” (priority 2005, dated 2013).

Residues, ends and D or L forms follow the SMILES beside them. No end group written: not given here. ξ: configuration not given here. *: point of attachment. Lip = lipoic acid (N-terminal), O=C(CCCC[C@@H]1CCSS1)*; Lipoyl(6ξ) = O=C(CCCCC1CCSS1)*

One data set relates to N27 dopaminergic cells. Kind of data set: Survival of N27 dopaminergic cells in the presence of 300 μM MPP+ neurotoxic agent. The data set is classed as cell-based, rat.
Data set [1] concerns noradrenergic neurons in the striatum. Description: Survival of noradrenergic neurons in the MPTP mouse model for Parkinson's disease. The data set is classed as in vivo. From the text:
Tests were done in the MPTP mouse model for Parkinson's disease.

The test system of data set [2] is SH-SY5Y human neuroblastoma cells. Description: Protection of SH-SY5Y neuroblastoma cells from Yankner peptide (b/A4), LDH content of remaining cells. It counts as cell-based. The note with it: 20 μM Yankner peptide alone. As to the method:
A characteristic constituent of Alzheimer's Disease (AD) is the formation of plaques from the 39-43 amino acid long peptide derived from amyloid protein (Selkoe, D. TINS (1993) 16: 403-409). This molecule (b/A4) can be toxic to mammalian nerve cells. […] Yankner et al. (Science (1990) 250: 279-282) has developed this property in a culture method as an AD assay procedure.
Differentiated cultures of SH-SY5Y Human neuroblastoma cells were grown to a stage where the cells formed a network of neurites. […] At day 3, after removal of the supernatant and the debris from dead cells by 3 washes with saline, the cells were then lysed and their LDH content was assayed for cell survival by measuring the LDH present in the remaining cells. The results were compared to LDH present in untreated controls, that were incubated for 3 days with no peptide additives (Table 7). The assay assumes that the LDH content of healthy cells remains constant and can be used as an index of living cells. The experiments using anoxia in our previous work were in agreement with this assumption.
This experiment was performed in the method described above for Example 6, Experiment 1, except that the cells were incubated for 4 days instead of 3 to enhance the degenerative effect of the Yankner peptide. […]

In data set [3] the test system is SHSY cells. The data set is classed as cell-based, human. The note with it: 20 μM Yankner peptide alone.
Method: Aliquots of 3×10^5 SHSY cells were plated in each well of a 24-well microtiter plate in 1 ml of medium containing no peptides (Control=Ctrl), 20 μM Yankner peptide (Yankner), or 20 μM Yankner peptide+75 μM of DQ (SEQ ID NO:2) (Yankner+BTX). Plates were incubated at 37° C. in a 5% CO2 incubator for 3 days, then each well was washed twice with 1×PBS to remove loosely bound cells. The number of remaining cells per ml was determined by microscopy. […] Error bars denote one standard deviation. […] BTX was DQ (SEQ ID NO:2) in this experiment.
Data set [4] concerns SHSY cells. Description: LDH levels in residual surviving SHSY cells after Yankner peptide. The data set is classed as cell-based, human. The following applies: Yankner peptide alone. Here is the method:
In a tissue culture model for Alzheimer's disease, treatment with the Yankner peptide (amyloid fragment) causes cell death within 3 days. […] By studying the time course of cell death in this culture model for Alzheimer's disease, it was determined that about 60% of the cells die within 24 hrs. When the neuroprotective/neurorestorative peptide of the invention was added to the cells at the 24 hour time point (e.g., 24 hours after the cells were contacted with the Yankner peptide), over 40% of the injured neurons that were destined to die on day 3 were rescued.
Aliquots of 3×10^5 SHSY cells were plated in each well of a 24-well microtiter plate in 1 ml of medium containing no peptides (control=Ctrl), 20 μM Yankner peptide (Yankner), 20 μM Yankner peptide+75 μM DQ peptide (SEQ ID NO:2) added at time of plating (Yankner+BTX Simultaneous), or 20 μM Yankner+75 μM BTX-639 added 24 hr post plating (Yankner+BTX 24 Hr Post). Plates were incubated at 37° C. in a 5% CO2 incubator for 3 days, then each well was washed twice with 1×PBS to remove loosely bound cells. Whole cell lysates were prepared from the remaining attached (viable) cells, and Lactate dehydrogenase (LDH) activity measured as described in methods. The results are illustrated in FIG. 2, in which each histobar represents the mean of 11 independent trials. Error bars denote one standard deviation. […]

Data set [5] relates to primary rat cortical cultures. Description: Oxygen-glucose deprivation (anoxia) of primary rat cortical cultures, LDH release into extracellular medium. It counts as cell-based. As to the method: Peptides of the invention have been examined for neuroprotective activity in primary rat cortical cultures. […] It rescued 90-100% of the neurons that were exposed to a 3 hour oxygen-glucose deprivation (OGD).
For the tests, primary mixed neuron-glia rat cortical cultures were grown to 80-95% confluence, as previously described (Shashoua, V. E. et al., Brain Res. (2004) 1024(1-2):34-43). Their neurons were grown over a layer of glia cells and formed a network of processes. Such cultures, after a 5× wash in oxygen-free (air displaced by argon) Hanks Balanced Salt Solution (HBSS) (Shashoua, V. E. et al., Brain Res. (2004) 1024(1-2):34-43) buffer, which contained no glucose, serum, and growth factors, were transferred for 3 hrs into the Form a Scientific Anaerobic Chamber (Thermo Forma, Marietta, Ohio) (Goldberg, M. P. and Choi, D. W. J Neurosci. (1993) 13(8):3510-3524) in an atmosphere of N2, CO2 and H2 (85%, 5%, and 10%). After exposure to oxygen-glucose deprivation (OGD) the neurons, retract their processes and generate vacuoles in their perikarya. […] Large increases (about 250%) in the release of lactic acid dehydrogenase (LDH, a marker of cell injury) into the extra-cellular medium occurred. For the test of glucose-oxygen deprivation on the release of lactic acid dehydrogenase as a function of time by primary rat cortical cultures, the LDH assay of extracellular fluid (1 ml aliquots) for cultures from cells were incubated for 24 hours under normoxia conditions and were compared with cells exposed up to 4 hours of anoxia in HBSS medium followed by normoxia medium for a total period of 24 hours. LDH was measured as absorbance at 490 nm, n=6 per time point (Shashoua, V. E. et al., Brain Res. (2004) 1024(1-2):34-43) (see Table 2). Assays and detection were performed according to manufacturer's instructions using a Promega Cyto Tox 96, a nonradioactive cytotoxicity assay kit (Promega, Madison, Wis.).
For these experiments there were n=6 per assay, and a 3 hour treatment of anoxia was followed by 21 hours of normoxia reperfusion. SEQ ID NO:1 was added at 1 hour post initiation of anoxia and was also present during the 21 hours of reperfusion. […] The results for SEQ ID NO:1 as well as the results for SEQ ID NOs:3 and 4, which are shown in Tables 3 and 4 give results of LDH assay that was done on supernatant of extracellular medium.
A general note: LDH leaks from cells whose membrane has failed.

Where [6] appears, read: 300 μM MPP+ + 14 μM peptide, n = 8.

Take `C[n+]1ccc(-c2ccccc2)cc1` [MPP+, 1-methyl-4-phenylpyridinium, reference compound]: in the data set with N27 dopaminergic cells (300 μM MPP+ alone), the “% Rescue after Treatment for 0 hours” value stood at 100 ± 2%, the “% Rescue after Treatment for 24 hours” value was found to be 0 ± 3% and the “% Rescue after Treatment for 48 hours” value is listed as 0 ± 4%.
In data set [1] (4 days following an IP injection 30 mg/Kg of MPTP, no peptide), `CN1CC=C(c2ccccc2)CC1` [MPTP, 1-methyl-4-phenyl-1,2,3,6 tetrahydropyridine, reference compound] gave a neurons that survive of 12.5%.
On to `CC[C@H](C)[C@H](NC(=O)[C@H](C)NC(=O)CNC(=O)[C@H](CCCCN)NC(=O)[C@H](CC(N)=O)NC(=O)[C@H](CO)NC(=O)CN)C(=O)N[C@H](C(=O)NCC(=O)N[C@@H](CC(C)C)C(=O)N[C@@H](CCSC)C(=O)O)[C@@H](C)CC` [Yankner peptide] (H-GSNKGAIIGLM-OH), for which the figures for the “OD 490 nm” value in data set [2] (3 days) and in data set [2] (4 days) were 0.568 OD 490 nm and 0.127 OD 490 nm, respectively. The compound also showed a cell death in the data set on SHSY cells [3] of 50%. Also, in the data set with SHSY cells [4], the “cells that die within 24 hrs” value was “about 60%”.
With `CC(C)[C@H](NC(=O)[C@H](CCC(=O)O)NC(=O)CCCCC1CCSS1)C(=O)N[C@@H](CC(=O)O)C(=O)N[C@@H](CC(=O)O)C(=O)N[C@@H](CC(=O)O)C(=O)N[C@@H](CCC(N)=O)C(=O)O` (stereo partly drawn) [[Lip]-EVDDDQ] ({Lipoyl(6ξ)}-EVDDDQ-OH; C-terminus assumed), in data set [1] (concluded from the in vivo effect), the “passage through the Blood-Brain Barrier (in words)” value is listed as “can get through the Blood-Brain Barrier”.
On to EVDDDQ [SEQ ID NO: 1], for which the “reversal of the effects of anoxia / neuroprotection from anoxia (in words)” value in data set [5] is listed as “active in reversing the effects of anoxia”. Further, the “effects of anoxia, cell morphology and LDH release (in words)” value in data set [5] (1 ng/ml up to 10 ng/ml in the media, even after the 3 hr OGD treatment, 21 hours normoxia reperfusion) was “all the effects of anoxia were reversed and cell morphology and LDH release returned to normal”. The “LDH (A 490 nm)” value in data set [5] (Table 3, anoxia + 1 ng/ml) is on record as 0.33 ± .02 A 490 nm; in data set [5] (Table 3, anoxia + 10 ng/ml) it was 0.22 ± .03 A 490 nm; in data set [5] (Table 3, anoxia + 100 ng/ml), 0.161 ± .04 A 490 nm. Moreover, the “LDH Released % of Normoxia” value in data set [5] (Table 3, anoxia + 1 ng/ml) was 100 % of Normoxia; in data set [5] (Table 3, anoxia + 10 ng/ml), 68 % of Normoxia; in data set [5] (Table 3, anoxia + 100 ng/ml) it was 50 % of Normoxia. Further, the “LDH release compared with normoxia controls (in words)” value in data set [5] (high doses) is on record as “decreased LDH release to lower amounts than those present in normoxia controls”. Moreover, the neurons rescued in data set [5] (neurons exposed to a 3 hour oxygen-glucose deprivation (OGD)) was 90-100%. In addition, the “% Rescue after Treatment for 24 hours” value in the data set with N27 dopaminergic cells (300 μM MPP+ + 14 μM (10 μg/ml) peptide, n = 8) is listed as 82 ± 2%; in the data set on N27 dopaminergic cells (300 μM MPP+ + 14 μM (10 μg/ml) peptide, n = 8, listed as SEQ ID NO:1) it was 82%. Further, the “% Rescue after Treatment for 0 hours” value in the data set on N27 dopaminergic cells (setting [6]) came to 100 ± 2%. For the same compound, in the data set on N27 dopaminergic cells (setting [6]), the “% Rescue after Treatment for 48 hours” value was determined as 56 ± 4%.
As for QDDDVE, the “reversal of the effects of anoxia / neuroprotection from anoxia (in words)” value in data set [5] is “reverse effects of anoxia”.
VFTPPS: the “reversal of the effects of anoxia / neuroprotection from anoxia (in words)” value in data set [5] is recorded as “reverse effects of anoxia”.
For [Ac]-QDDDVE (Ac-QDDDVE), in data set [5] (Table 4, anoxia + 1 ng/ml), the “LDH (A 490 nm)” value is recorded as 0.33 ± 0.02 A 490 nm and the “LDH Released % of Normoxia” value is recorded as 100 ± 6 % of Normoxia. For the same compound, in data set [5] (Table 4, anoxia + 10 ng/ml), the “LDH (A 490 nm)” value is 0.22 ± 0.04 A 490 nm and the “LDH Released % of Normoxia” value is listed as 67 ± 12 % of Normoxia. For the same compound, in data set [5] (Table 4, anoxia + 100 ng/ml), the “LDH (A 490 nm)” value is reported as 0.16 ± 0.05 A 490 nm and the “LDH Released % of Normoxia” value is recorded as 48 ± 15 % of Normoxia. Also, in the data set with N27 dopaminergic cells (42 μM peptide + 300 μM MPP+), the “% Rescue per Treatment time 0 hours” value came out at 100 ± 2%, the “% Rescue per Treatment time 24 hours” value came out at 42 ± 4% and the “% Rescue per Treatment time 48 hours” value came out at 27 ± 3%.
As to “[Lip]-VFTPPS (Lip-VFTPPS) [VFTPPS conjugated to lipoic acid at the N-terminal amino acid]”, the “reversal of the effects of anoxia / neuroprotection from anoxia (in words)” value in data set [5] is “promote neuroprotection from anoxia”. Besides, in data set [5] (Table 4, anoxia + 10 ng/ml), the “LDH (A 490 nm)” value came out at 0.56 ± 0.08 A 490 nm and the “LDH Released % of Normoxia” value is recorded as 169 ± 24 % of Normoxia. In addition, in data set [5] (Table 4, anoxia + 100 ng/ml), the “LDH (A 490 nm)” value came out at 0.37 ± 0.04 A 490 nm and the “LDH Released % of Normoxia” value is reported as 112 ± 12 % of Normoxia.
